The results in this text go back to patent publication US20200253877A1, “GEMCABENE, PHARMACEUTICALLY ACCEPTABLE SALTS THEREOF, COMPOSITIONS THEREOF AND METHODS OF USE THEREFOR” (NEUROBO PHARMACEUTICALS, INC., priority 2018, published 2020).

Series [1] can be described thus: Aqueous solubility of gemcabene calcium salt forms over 24 hours (HPLC concentration, XRPD form). In kind it is physicochemical. Conditions: slurry in water, approximately 25° C. As for the experimental part: To each vial, approximately 3 mL to 4 mL water were added and the samples were mixed at ambient temperature (approximately 25° C.) for approximately 24 hours. […] From each vial, samples of the slurries were taken after 1, 4, and 24 hours, which were separated by centrifugation. The solids were separated by centrifugation and analyzed by XRPD for solid form and by HPLC for concentration.

Series [2] is described as follows: Stability study of gemcabene calcium salt forms (XRPD form, HPLC/CAD purity). It counts as physicochemical. As for the experimental part: The stability studies were carried out using storage conditions at a) 40° C. and 75% relative humidity (RH), b) at 80° C. and c) at ambient temperature (approximately 22° C.). After 7 days and 14 days, the samples were removed from the relevant storage conditions and initially analyzed by XRPD to identify any form changes. The samples were then analyzed by HPLC/CAD (high-performance liquid chromatography equipped with a charged aerosol detector) for purity, with all solid purity values given on a w/w % basis.

`CC(C)(CCCCOCCCCC(C)(C)C(=O)[O-])C(=O)[O-].[Ca+2]` [amorphous gemcabene calcium salt]: the “change in polymorphic form during the test period (XRPD)” value in series [1] (24 hours) is recorded as “conversion to a new polymorph, gemcabene calcium salt hydrate Crystal Form 6”. Besides, the “change in concentration (HPLC) during the experiment” value in series [1] (sampled 1, 4, 24 hours) is “initial increase in concentration after 4 hours followed by a slight decrease in the concentration after 24 hours”. For the same compound, in series [2] (2-week study, 40° C./75% RH, 80° C. and ambient), the “change in form (XRPD)” value is given as “No change in the form”. In addition, in series [2] (after 2 weeks storage, all 3 storage conditions), the “purity (HPLC/CAD) compared to the starting form” value is listed as “drop in purity”.
